Reference: patent US8946437B2, “4-(methylaminophenoxy)pyrdin-3-yl-benzamide derivatives for treating cancer” (Otsuka Pharmaceutical Co., Ltd., priority 2010, dated 2015)
Counter-ions that a name gives are not always drawn.

Assays:
[1] = Metabolic stability test in hepatic microsome; format: in vitro ADME; conditions: liver microsomes, NADH/NADPH, 37° C., 0, 10 and 20 min, read-out: CLint (intrinsic clearance)
Method: Metabolic Stability Test in Hepatic Microsome
In this study, 222.5 μL of 0.22 mg/mL liver microsome was distributed to each tube, and 2.5 μL of 100 μM test compound was added thereto. Then, 22.5 μL of this mixture was divided to 500 μL of acetonitrile spiked IS as 0 min sample, and the residue was pre-incubated at 37° C. for 5 min. Reaction was started by the addition of 22.5 μL of 10 mM NADH/NADPH, and after 10 and 20 min, 25 μL of the reaction mixture was divided to 500 μL of acetonitrile spiked IS. The samples were centrifuged (5700 rpm, 4° C., 10 min), and the supernatants were analyzed by LC/MS/MS. The slope of the linear regression from log percentage remaining versus incubation time relationships (−ke) was calculated, and the intrinsic clearance (CLint) was calculated using the following equation.

[2] = tested on: human hepatic cancer cells (HuH-7); assay: Antiproliferative effect on cancer cells (in vitro), sulforhodamine B method; format: cell-based; conditions: 120 h, HuH-7 cells, 5 days incubation with test compound, SRB staining, read-out: IC50 (50% inhibitory concentration), growth inhibition of HuH-7 cells
Method: Antiproliferative Effect on Cancer Cells (In Vitro)
Growth inhibition of human hepatic cancer cells (HuH-7) was determined by the sulforhodamine B method based on the method of Skehan P. et al. (J Natl Cancer Inst. 1990 Jul. 4; 82(13): 1107-12). In the study, HuH-7 cells were seeded on DMEM medium containing 10% fetal bovine serum in a 96-well microplate. After 24-hour incubation at 37° C. in the presence of 5% carbon dioxide, the test compound was added and the cells were incubated for another 5 days. After incubation, a trichloroacetic acid solution was added to yield the final concentration of 10% and the cells were left to stand at 4° C. for 1 hour to fix. Then, the cells were washed with water to remove the medium and trichloroacetic acid and dried in the air. The dried cells were stored at 4° C. until they were stained with sulforhodamine B. To each well, 1% acetic acid solution containing 0.4% sulforhodamine B was added and left to stand for 20 to 30 minutes at room temperature. After discarding the supernatant, each well was washed with 1% acetic acid solution, and 10 mM Tris(tris-(hydroxymethyl)aminomethane) solution was added while stirring to elute the dye taken into the cells. Then, the optical density was determined at the measurement wavelength of 492 nm and the reference wavelength of 690 nm, and the difference was calculated. The cell growth activity in each well was defined as the value determined by subtracting the OD in the control well not containing cells (the difference in absorbance between 492 nm and 690 nm) from that in the test well.
The 50% inhibitory concentration (IC50 (nM)) of the test compound was determined by comparing the cell growth activity in the well containing the test compound with that of the control not containing the test compound.

[3] = Stability test of dissolved compounds under heat- and acid-stress condition; format: physicochemical; conditions: dissolved in water/acetonitrile/trifluoroacetic acid (500:500:1), stored at 70° C., Day 0, Day 1 and Day 3
Method: In order to estimate the stability of compounds without conducting a long-term stability test, the stability of the dissolved compounds was evaluated under a heat- and acid-stress condition.
About 0.005 g of test compound was dissolved in 50 mL of a mobile phase, and this solution was used as the sample solution. The solutions were put into a brown glass vial and stored at 70° C. during the test period. The test with 20 μL of each of the sample solution was conducted at the following sampling points as directed under the Liquid Chromatography according to the following conditions. The residual ratio of the test compound's peak area (%) in the total peak area detected in the solution was determined by the automatic integration method. Operating conditions were as follows. […] The residual ratio of the test compound's peak area (%) is calculated as follows. The peak area of the test compound/The total peak area detected in the solution×100.

Structure (SMILES) | melting point | microsomal CLint at 1 µM [1] [µL/min/mg] | IC50 [2] [µM] | storage stability (residual ratio of the test compound's peak area) [3]
CNc1ccc(Oc2ccc(NC(=O)c3ccc(F)c(F)c3F)cn2)c(OC)c1.Cl | 207.1 to 209.8 °C |  |  | 
CNc1ccc(Oc2ccc(NC(=O)c3ccc(-c4ccccc4)cc3)cn2)c(F)c1 [Example 2, N-{6-[2-Fluoro-4-(methylamino)phenoxy]pyridin-3-yl}biphenyl-4-carboxamide] | 190 to 190.5 °C (dec.) | < 200 | 0.108 | 
CNc1ccc(Oc2ccc(NC(=O)c3ccc(C(F)(F)F)cc3)cn2)c(F)c1 [Example 3, N-{6-[2-Fluoro-4-(methylamino)phenoxy]pyridin-3-yl}-4-(trifluoromethyl)benzamide] |  | < 200 | 0.155 | 
CNc1ccc(Oc2ccc(NC(=O)c3ccc(-c4ccccc4)cc3)cn2)c(C)c1 [Example 7, N-{6-[2-Methyl-4-(methylamino)phenoxy]pyridin-3-yl}biphenyl-4-carboxamide] |  | < 200 | 0.0776 | 
CNc1ccc(Oc2ccc(NC(=O)c3ccc(C(F)(F)F)cc3F)cn2)c(C)c1 [Example 9, 2-Fluoro-N-{6-[2-methyl-4-(methylamino)phenoxy]pyridin-3-yl}-4-(trifluoromethyl)benzamide] |  | < 200 | 0.0704 | 
CNc1ccc(Oc2ccc(NC(=O)c3ccc(Oc4ccccc4)cc3)cn2)cc1 [Example 10, N-{6-[4-(Methylamino)phenoxy]pyridin-3-yl}-4-phenoxybenzamide] |  |  | 0.32 | 
CNc1ccc(Oc2ccc(NC(=O)c3ccc(C(F)(F)F)cc3F)cn2)c(F)c1 [Example 22, 2-Fluoro-N-{6-[2-fluoro-4-(methylamino)phenoxy]pyridin-3-yl}-4-(trifluoromethyl)benzamide hydrochloride] |  | < 200 | 0.163 | 
CNc1ccc(Oc2ccc(NC(=O)c3ccc(F)c(F)c3F)cn2)c(F)c1 [Example 23, 2,3,4-Trifluoro-N-{6-[2-fluoro-4-(methylamino)phenoxy]pyridin-3-yl}benzamide hydrochloride] |  |  | 0.753 | 
CNc1ccc(Oc2ccc(NC(=O)c3ccc(C(F)(F)F)cc3)cn2)c(C)c1 [Example 24, N-{6-[2-methyl-4-(methylamino)phenoxy]pyridin-3-yl}-4-(trifluoromethyl)benzamide hydrochloride] |  | < 200 | 0.0723 | 
CNc1ccc(Oc2ccc(NC(=O)c3ccc(F)c(F)c3F)cn2)c(C)c1.Cl [Example 25, 2,3,4-Trifluoro-N-{6-[2-methyl-4-(methylamino)phenoxy]pyridin-3-yl}benzamide hydrochloride] | 222.9 to 225.4 °C (dec.) | < 200 | 0.485 | 

Other lines, results leading:

melting point | microsomal CLint at 1 µM [1] [µL/min/mg] | IC50 [2] [µM] | storage stability (residual ratio of the test compound's peak area) [3] | Structure (SMILES)
 | < 200 | 0.0785 |  | CNc1ccc(Oc2ccc(NC(=O)c3ccc(Oc4ccccc4)cc3)cn2)c(C)c1 [Example 6, N-{6-[2-Methyl-4-(methylamino)phenoxy]pyridin-3-yl}-4-phenoxybenzamide]
 |  | 0.311 |  | CNc1ccc(Oc2ccc(NC(=O)c3ccc(-c4ccccc4)cc3)cn2)cc1 [Example 11, N-{6-[4-(Methylamino)phenoxy]pyridin-3-yl}biphenyl-4-carboxamide]
161.4 to 161.8 °C | < 200 | 0.248 |  | CNc1ccc(Oc2ccc(NC(=O)c3ccc(-c4ccccc4)cc3)cn2)c(OC)c1 [Example 14, N-{6-[2-Methoxy-4-(methylamino)phenoxy]pyridin-3-yl}biphenyl-4-carboxamide]
 |  | 0.136 |  | CNc1ccc(Oc2ccc(NC(=O)c3ccc(Oc4ccccc4)cc3)cn2)c(F)c1 [Example 21, N-{6-[2-fluoro-4-(methylamino)phenoxy]pyridin-3-yl}-4-phenoxybenzamide hydrochloride]
202.2 to 202.3 °C | < 200 | 0.275 |  | CNc1ccc(Oc2ccc(NC(=O)c3ccc(Oc4ccccc4)cc3)cn2)c(OC)c1.Cl [Example 26, N-{6-[2-Methoxy-4-(methylamino)phenoxy]pyridin-3-yl}-4-phenoxybenzamide hydrochloride]
217.6 to 218.2 °C | < 200 | 0.304 |  | CNc1ccc(Oc2ccc(NC(=O)c3ccc(C(F)(F)F)cc3)cn2)c(OC)c1.Cl [Example 27, N-{6-[2-Methoxy-4-(methylamino)phenoxy]pyridin-3-yl}-4-(trifluoromethyl)benzamide hydrochloride]
197 to 198.1 °C | < 200 | 0.293 |  | CNc1ccc(Oc2ccc(NC(=O)c3ccc(C(F)(F)F)cc3F)cn2)c(OC)c1.Cl [Example 28, 2-Fluoro-N-{6-[2-methoxy-4-(methylamino)phenoxy]pyridin-3-yl}-4-(trifluoromethyl)benzamide hydrochloride]
 | < 200 | 0.275 | superior storage stability | CNc1ccc(Oc2ccc(NC(=O)c3ccc(C(F)(F)F)cc3)cn2)cc1.Cl [Example 30, N-{6-[4-(Methylamino)phenoxy]pyridin-3-yl}-4-(trifluoromethyl)benzamide hydrochloride]
 | < 200 | 0.327 |  | CNc1ccc(Oc2ccc(NC(=O)c3ccc(C(F)(F)F)cc3F)cn2)cc1 [Example 31, 2-Fluoro-N-{6-[4-(methylamino)phenoxy]pyridin-3-yl}-4-(trifluoromethyl)benzamide hydrochloride]
